US6651382B1, “Method for preventing the release of gramineous plant pollens” (National Agricultural Research Organization, priority 1999, dated 2003)

Test system: flowering barley line derived from a barley line "Satsuki-Nijo"
Assay: Flowering inhibition test on harvested unflowered barley ears treated with reagent solution
Format: in vivo
Method: A flowering barley line derived from a barley line “Satsuki-Nijo” was conventionally cultivated in the fields. At the earing time, unflowered ears immediately after earing were harvested. Each group of three ears was then treated with 10 cc reagent solution containing 1-100 ppm methyl jasmonate as a jasmonic acid derivative in an artificial climate chamber under the following conditions: in the light having a brightness of 120 […] for 14 hours at 25° C.; and in the dark for 10 hours at 15° C.
Flowered ears were transferred to a culture medium for cuttings and cultivated for about 20 days. The number of anthers remaining in a glumaceous flower after self-pollination was measured and used as a control.

[1] = Table 2 (repeated test), reagent concentration 1 ppm
[2] = Table 2 (repeated test), reagent concentration 10 ppm
[3] = Table 2 (repeated test), reagent concentration 100 ppm

SMILES: CC/C=C\CC1C(=O)CCC1CC(=O)OC (stereo not drawn) [Methyl jasmonate, methyl jasmonate]
- Number of remaining anthers per one glumaceous flower (Table 1, reagent concentration 1 ppm, after self-pollination): 0.7
- Number of flowered ears on the 6th day (Table 1, reagent concentration 1 ppm, group of three ears, 10 cc solution): 3
- Number of remaining anthers per one glumaceous flower (Table 1, reagent concentration 10 ppm, after self-pollination): 1.7
- Number of remaining anthers per one glumaceous flower (Table 1, reagent concentration 10 ppm, after self-pollination, listed as methyl jasmonate): more anthers than non-treated ears
- Number of flowered ears on the 6th day (Table 1, reagent concentration 10 ppm, group of three ears, 10 cc solution): 3
- Number of remaining anthers per one glumaceous flower (Table 1, reagent concentration 100 ppm, after self-pollination): 2.1
- Number of remaining anthers per one glumaceous flower (Table 1, reagent concentration 100 ppm, after self-pollination, listed as methyl jasmonate): many more remaining anthers
- Number of flowered ears on the 6th day (Table 1, reagent concentration 100 ppm, group of three ears, 10 cc solution): 0
- Number of flowered ears on the 6th day (Table 1, reagent concentration 100 ppm, group of three ears, 10 cc solution, listed as methyl jasmonate): no flowering was observed
- Number of flowered ears on the 6th day [1]: 3
- Number of remaining anthers per one glumaceous flower [1]: 1.1
- Number of flowered ears on the 6th day [2]: 3
- Number of remaining anthers per one glumaceous flower [2]: 1.7
- Number of flowered ears on the 6th day [3]: 0
- Number of remaining anthers per one glumaceous flower [3]: 2.6
